From patent publication US10780174B2, “Lipid-linked prodrugs” (The University of British Columbia, priority 2015, dated 2020)
Entries after “also recorded” stand apart in the source; their conditions may differ. Like-named read-outs stand apart in the source and are kept apart here.

Tests used:
[1] = test system: immunostimulatory effects of LNP-CpG (plasma cytokines); assay: In vivo immune suppression by LD-DEX prodrugs, LNP-CpG model; parameters: species or system C57Bl/6 mice; conditions: mice, i.v., 10 mg/kg of CpG, 2 h post injection
Description: (§1) 6-8 Weeks old female C57Bl/6 mice (Charles River Laboratories™, Wilmington, Mass.) were injected intravenously with lipid nanoparticles containing CpG DNA oligonucleotides (10 mg/kg), mRNA (3 mg/kg) or plasmid DNA (pDNA) (1 mg/kg). Animals were euthanized 2 hours post-injection and blood was collected via intracardiac or saphenous sampling. Plasma was separated from whole blood by centrifugation and analyzed for proinflammatory cytokines using the Mesoscale Proinflammatory Multiplex™ kit (Rockville, Md.) according to manufacturer's instruction. All procedures were approved by the Animal Care Committee at the University of British Columbia and were performed in accordance with guidelines established by the Canadian Council on Animal Care.

[2] = In vitro dissociation of lipid-linked prodrugs from LNP in human plasma; type: in vitro ADME; conditions: human plasma over 24 h, 37° C., PC-Chol LNP or ionizable LNP
Description: LNP were incubated for 0, 3, 5 and 24 h at 37° C. in 400 μL of sterile human plasma (Cedarlane™, Burlington, Ontario) at a final lipid concentration of 1.2 mM. At the various time-points, samples were loaded onto a 1.5×27 cm Sepharose CL-4B column (Sigma-Aldrich™, St. Louis, Mo.). 30×2 mL fractions were collected. Three volumes of methanol/acetonitrile (1:1) were added to each fraction and analyzed by UHPLC to determine the residual LD-DEX/DTX as described above.

[3] = test system: purified porcine esterase; assay: In vitro degradation of lipid-linked prodrugs in LNP, purified esterase in PBS; conditions: for prodrug degradation over 24 h in purified esterase: LNP, 0, 2, 4 and 24 h; for release of active drug (UPLC chromatogram) in purified esterase: 24 h incubation
[4] = In vitro degradation of lipid-linked prodrugs in LNP, mouse plasma; type: in vitro ADME; conditions: for prodrug degradation over 24 h in mouse plasma: LNP, 0, 2, 4 and 24 h; for prodrug cleavage/degradation after 1 h in plasma: 37° C., mouse plasma; for release of active drug (UPLC chromatogram) in mouse plasma: 24 h incubation
Description: (§2) Quantitation of prodrugs by HPLC: LD-DEX/DTX were quantified by ultra high-pressure liquid chromatography (UHPLC) using a Waters Acquity™ UPLC system equipped with a photodiode array detector (PDA) and evaporative light scattering (ELS) detector; Empower™ data acquisition software version 3.0 was used (Waters™, USA). Separations were performed using a Waters Acquity™ BEH C18 column (1.7 μm, 2.1×100 mm) at a flow rate of 0.5 ml/min, with mobile phases A and B consisting of methanol/10 mM ammonium bicarbonate (80/20% v/v) and methanol/acetonitrile (80/20% v/v), respectively. The mobile phases were delivered at a programmed linear gradient (45%-80% B in 1 min then to 99% B at 2 min) at a column temperature of 55° C. The analyte was measured by PDA (at a wavelength of 239 nm) and ELS detector against calibration standard curves. For the analysis of LD-DEX/DTX breakdown to active compound, linear gradients of 20/80% to 100/0% (acetonitrile/water, v/v) over 7 min were used.
To determine the biodegradability of the dexamethasone or docetaxel prodrugs (LD-DEX/DTX), 1 mg/mL LNP was incubated in mouse plasma (Cedarlane™, Burlington, Ontario) or PBS supplemented with 10 U of purified esterase (Sigma-Aldrich™, St. […] Post incubation, four volumes of chloroform/methanol (2:1) was added and the mixture was vortex mixed. Samples were centrifuged at 13,000 g for 5 minutes and the upper phase was discarded. The remaining organic phase was dried down under vacuum and the resulting lipid extract was dissolved in methanol/acetonitrile (1:1). Quantity of parent LD-DEX/DTX compound was determined by ultra high pressure liquid chromatography on a Waters Acquity™ H-Class UPLC System™ equipped with a BEH C18 column and a photodiode array detector.

[5] = Particle size and polydispersity of LNP containing prodrug (dynamic light scattering); type: physicochemical; conditions: PDI in brackets; for Particle size (PDI) PC-Chol LNP: LD-DEX prodrug in PC-Chol LNP; for Particle size (PDI) [ionizable LNP]: LD-DEX prodrug in ionizable LNP
Description: (§3) Preparation of LNP Systems: PC-Chol LNP systems were prepared by rapidly mixing POPC, cholesterol, lipid-linked prodrug and PEG-DMPE (in molar ratio of 49/39/10/2) dissolved in ethanol with phosphate-buffered saline using a T-junction mixer. Formulations were dialyzed against phosphate-buffered saline to remove residual ethanol and to raise the pH to 7.4. PC-TO and ionizable LNP systems were prepared in the same way except that the lipid compositions for these systems are: POPC, triolein, lipid-linked prodrug and PEG-DSPE (in molar ration of 19/70/10/1), and ionizable lipid, DSPC, cholesterol, lipid-linked prodrug and PEG-DMPE (in molar ration of 40/10/38.5/10/1.5), respectively.
Characterization of LNP: Particle size was determined by dynamic light scattering using a Malvern Zetasizer Nano ZS™ (Malvern, UK) following buffer exchange into phosphate-buffered saline. Number-weighted size and distribution data was used. Lipid concentrations were determined by measuring total cholesterol using the Cholesterol E enzymatic assay kit from Wako Chemicals USA™ (Richmond, Va.). The morphology of LNP formulations containing LD-DEX was analyzed by cryogenic-transmission electron microscopy (cryoTEM) as described previously [Leung et al. (2012)].

[6] = Prodrug incorporation (entrapment) in lipid nanoparticles, UHPLC; type: physicochemical; conditions: for % Entrapment PC-Chol LNP: LD-DEX prodrug in PC-Chol LNP; for % Entrapment [ionizable LNP]: LD-DEX prodrug in ionizable LNP
Description: as §3, §2

[7] = test system: purified porcine esterase; conditions: pig, 1 mg/mL LNP
[8] = test system: immunostimulatory effects of LNP-mRNA (plasma cytokines); assay: In vivo immune suppression by LD-DEX prodrugs, LNP-mRNA model; parameters: species or system C57Bl/6 mice; conditions: mice, 3 mg/kg of mRNA, 2 h post injection
Description: as §1

[9] = test system: immunostimulatory effects of LNP-pDNA (plasma cytokines); assay: In vivo immune suppression by LD-DEX prodrugs, LNP-pDNA model; parameters: species or system C57Bl/6 mice; conditions: mice, i.v., 1 mg/kg of pDNA, 2 h post injection
Description: as §1

[10] = test system: IL1β expression in RAW 264.7 mouse macrophage cells; assay: In vitro immune suppression, LPS-treated RAW 264.7 cells, IL1β qRT-PCR; type: cell-based; conditions: 2 ng/mL LPS, 4 h
Description: RAW 264.7 mouse macrophage cells were seeded at 250,000 cells per mL on 12-well plates and incubated at 37° C. overnight. Lipopolysaccharide (LPS) was dissolved in phosphate buffered saline at a concentration of 2 μg/ml. Cells were treated with lipid nanoparticles containing LD-DEX prodrugs and 2 ng/ml of LPS for 4 hours. This LPS concentration was chosen due to its ability to increase IL1β expression approximately 1000 times as compared to untreated cells. At the end of the incubation period, culture medium was aspirated and cellular RNA was extracted using the Purelink RNA™ extraction kit according to manufacturer's protocol (Life Technologies™, Burlington, ON). The concentration of extracted RNA was determined using a Nanodrop Lite™ (Thermo Fisher™). 1 μg of RNA was converted to cDNA using the High Capacity cDNA Reverse Transcription kit (Life Technologies™, Burlington, ON). In order to validate the sample preparation, a no template control and a negative reverse transcriptase control were included. The cDNA was then quantified using comparative real-time qPCR where the Ct (threshold cycle) values are converted to relative quantity using the 2-ΔΔCT method. The primer-probe sets were designed to bind to cDNA of Interleukin-1β(IL1β). Hypoxanthine-guanine phosphoribosyltransferase (HPRT) was chosen as the endogenous normalizer gene, which is known to maintain consistent levels with varying treatments.

SMILES | plasma TNFα and KC/GRO levels versus control LNP-CpG [1] | prodrug dissociation rate from LNP [2] | prodrug dissociation rate from LNP ([2]; listed as LD02) | prodrug degradation over 24 h in purified esterase [3] | release of active drug (UPLC chromatogram) in purified esterase ([3]; LNP) | prodrug degradation over 24 h in mouse plasma [4] | prodrug cleavage/degradation after 1 h in plasma ([4]; LNP) | release of active drug (UPLC chromatogram) in mouse plasma ([4]; LNP) | Particle size (PDI) PC-Chol LNP [5] | Particle size (PDI) [ionizable LNP] [5] | % Entrapment PC-Chol LNP [6] [%] | % Entrapment [ionizable LNP] [6] | prodrug degradation over 24 h in purified esterase [7] | prodrug cleavage in PBS containing isolated esterases ([3]; LNP, 1 or 4 h incubation) | prodrug cleavage in plasma ([4]; LNP, 1 or 4 h incubation in plasma) | plasma cytokine levels versus control LNP-mRNA ([8]; 3 mg/kg) | plasma cytokine levels versus control LNP-mRNA ([8]; listed as LD03, 3 mg/kg) | plasma cytokine levels versus control LNP-pDNA ([9]; 1 mg/kg) | plasma cytokine levels versus control LNP-pDNA ([9]; listed as LD03, 1 mg/kg) | IL1β expression versus control LNP without prodrug [10]
CCCCC/C=C\C/C=C\CCCCCCCC(=O)OC[C@H](COC(=O)CCC(=O)OCC(=O)[C@@]1(O)[C@H](C)C[C@H]2[C@@H]3CCC4=CC(=O)C=C[C@]4(C)[C@@]3(F)[C@@H](O)C[C@@]21C)OC(=O)CCCCCCC/C=C\C/C=C\CCCCC [LD02-DEX, 2,3-dilinoleoyloxypropyl (2-((8S,9R,10S,11S,13S,14S,16R,17R)-9-fluoro-11,17-dihydroxy-10,13,16-trimethyl-3-oxo-6,7,8,9,10,11,12,13,14,15,16,17-dodecahydro-3H-cyclopenta[a]phenanthren-17-yl)-2-oxoethyl) succinate] | marked reduction in cytokine levels | dissociated from lipid nanoparticles at a slower rate than LD03-DEX | dissociates from LNP at a slower rate than that of LD03 | progressively degraded | a peak corresponding to active dexamethasone (DEX) appeared | progressively degraded | virtually no degradation | a peak corresponding to active dexamethasone (DEX) appeared | 53 (0.05) nm | [49 (0.05)] nm | 100 | [99] % | – | – | – | – | – | – | – | –
CCCCC/C=C\C/C=C\CCCCCCCCOC(=O)CCC(=O)OCC(=O)[C@@]1(O)[C@H](C)C[C@H]2[C@@H]3CCC4=CC(=O)C=C[C@]4(C)[C@@]3(F)[C@@H](O)C[C@@]21C [LD03-DEX, linoleyl 2-((8S,9R,10S,11S,13S,14S,16R,17R)-9-fluoro-11,17-dihydroxy-10,13,16-trimethyl-3-oxo-6,7,8,9,10,11,12,13,14,15,16,17-dodecahydro-3H-cyclopenta[a]phenanthren-47-yl)-2-oxoethyl succinate] | marked reduction in cytokine levels | – | – | progressively degraded | a peak corresponding to active dexamethasone (DEX) appeared | progressively degraded; also recorded: degraded at a faster rate than LD02-DEX | significant cleavage | a peak corresponding to active dexamethasone (DEX) appeared | 64 (0.06) nm | [48 (0.04)] nm | 94 | [100] % | degraded at a faster rate than LD02-DEX | progressive prodrug cleavage | progressive prodrug cleavage | significantly reduced levels | suppresses the immunostimulatory effects of LNP-mRNA | efficiently suppressed cytokine levels | suppresses the immunostimulatory effects of LNP-pDNA | able to reduce IL1β expression
